Assays:
Format in all cases: biochemical
FGFR1 = FGFR1 (Homo sapiens (Human), UniProt P11362); experiment: FGFR Enzymatic Assay (FRET peptide phosphorylation), FGFR1; details: ATP 210 μM, enzyme 0.02 nM
Procedure: (§1) The inhibitor potency of the exemplified compounds was measured in an enzyme assay that measures peptide phosphorylation using FRET measurements to detect product formation. Inhibitors were serially diluted in DMSO and a volume of 0.5 μL was transferred to the wells of a 384-well plate. For FGFR3, a 10 μL volume of FGFR3 enzyme (Millipore) diluted in assay buffer (50 mM HEPES, 10 mM MgCl2, 1 mM EGTA, 0.01% Tween-20, 5 mM DTT, pH 7.5) was added to the plate and pre-incubated for 5-10 minutes. Appropriate controls (enzyme blank and enzyme with no inhibitor) were included on the plate. The assay was initiated by the addition of a 10 μL solution containing biotinylated EQEDEPEGDYFEWLE peptide substrate (SEQ ID NO: 1) and ATP (final concentrations of 500 nM and 140 μM respectively) in assay buffer to the wells. The plate was incubated at 25° C. for 1 hr. The reactions were ended with the addition of 10 μL/well of quench solution (50 mM Tris, 150 mM NaCl, 0.5 mg/mL BSA, pH 7.8; 30 mM EDTA with Perkin Elmer Lance Reagents at 3.75 nM Eu-antibody PY20 and 180 nM APC-Streptavidin). The plate was allowed to equilibrate for ˜1 hr before scanning the wells on a PheraStar plate reader (BMG Labtech).
(§2) FGFR1 and FGFR2 were measured under equivalent conditions with the following changes in enzyme and ATP concentrations: FGFR1, 0.02 nM and 210 μM, respectively and FGFR2, 0.01 nM and 100 μM, respectively. The enzymes were purchased from Millipore or Invitrogen.
(§3) GraphPad prism3 was used to analyze the data. The IC50 values were derived by fitting the data to the equation for a sigmoidal dose-response with a variable slope. Y=Bottom+(Top−Bottom)/(1+10^((Log IC50−X)*HillSlope)) where X is the logarithm of concentration and Y is the response.

FGFR2 = FGFR2 (Homo sapiens (Human), UniProt P21802); experiment: FGFR Enzymatic Assay (FRET peptide phosphorylation), FGFR2; details: ATP 100 μM, enzyme 0.01 nM
Procedure: as §1, §2, §3

FGFR3 = FGFR3 (Homo sapiens (Human), UniProt P22607); experiment: FGFR Enzymatic Assay (FRET peptide phosphorylation), FGFR3; details: ATP 140 μM
Procedure: as §1, §3

Sequence of FGFR3 (P22607 23-806): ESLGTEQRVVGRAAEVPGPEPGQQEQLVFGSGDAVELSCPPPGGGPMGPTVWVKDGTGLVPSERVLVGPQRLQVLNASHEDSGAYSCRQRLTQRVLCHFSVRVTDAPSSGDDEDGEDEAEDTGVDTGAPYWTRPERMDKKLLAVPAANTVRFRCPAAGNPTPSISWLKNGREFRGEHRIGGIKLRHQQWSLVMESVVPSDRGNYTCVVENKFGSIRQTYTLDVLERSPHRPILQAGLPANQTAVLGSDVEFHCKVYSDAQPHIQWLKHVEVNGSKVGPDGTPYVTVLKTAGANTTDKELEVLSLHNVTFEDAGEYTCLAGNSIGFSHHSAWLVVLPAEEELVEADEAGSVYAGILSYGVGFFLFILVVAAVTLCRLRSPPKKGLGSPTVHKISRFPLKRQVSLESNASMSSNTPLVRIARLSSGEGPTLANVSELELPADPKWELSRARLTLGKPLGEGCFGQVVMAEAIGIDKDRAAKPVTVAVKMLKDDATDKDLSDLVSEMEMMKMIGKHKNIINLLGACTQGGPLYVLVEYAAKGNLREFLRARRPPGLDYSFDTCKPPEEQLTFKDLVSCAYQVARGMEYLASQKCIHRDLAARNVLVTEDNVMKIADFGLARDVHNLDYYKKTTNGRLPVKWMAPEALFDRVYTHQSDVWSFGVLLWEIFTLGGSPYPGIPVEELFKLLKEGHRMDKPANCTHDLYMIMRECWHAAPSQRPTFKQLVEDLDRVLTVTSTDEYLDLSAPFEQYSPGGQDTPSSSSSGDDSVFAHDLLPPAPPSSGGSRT
Sequence of FGFR2 (P21802 22-821): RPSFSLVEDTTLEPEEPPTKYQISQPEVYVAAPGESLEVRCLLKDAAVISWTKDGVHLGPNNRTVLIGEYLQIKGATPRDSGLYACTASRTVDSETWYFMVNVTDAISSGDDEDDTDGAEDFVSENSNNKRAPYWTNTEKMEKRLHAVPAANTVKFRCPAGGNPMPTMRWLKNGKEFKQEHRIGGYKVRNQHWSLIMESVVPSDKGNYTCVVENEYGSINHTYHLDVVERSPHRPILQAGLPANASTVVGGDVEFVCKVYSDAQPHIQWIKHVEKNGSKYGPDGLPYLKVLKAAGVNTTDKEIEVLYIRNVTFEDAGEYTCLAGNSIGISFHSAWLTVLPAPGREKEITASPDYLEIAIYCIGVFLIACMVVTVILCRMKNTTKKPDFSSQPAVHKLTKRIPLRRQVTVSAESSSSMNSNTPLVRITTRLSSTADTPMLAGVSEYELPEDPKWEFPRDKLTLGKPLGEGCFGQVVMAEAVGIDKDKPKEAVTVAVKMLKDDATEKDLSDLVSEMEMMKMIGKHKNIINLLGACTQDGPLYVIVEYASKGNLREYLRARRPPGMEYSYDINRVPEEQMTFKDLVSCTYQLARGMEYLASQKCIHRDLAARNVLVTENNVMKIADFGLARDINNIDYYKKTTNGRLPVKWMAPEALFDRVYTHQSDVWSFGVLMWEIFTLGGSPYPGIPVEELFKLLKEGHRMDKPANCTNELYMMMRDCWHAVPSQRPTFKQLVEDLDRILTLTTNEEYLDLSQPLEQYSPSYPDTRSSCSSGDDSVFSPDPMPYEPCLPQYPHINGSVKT
Sequence of FGFR1 (P11362 22-822): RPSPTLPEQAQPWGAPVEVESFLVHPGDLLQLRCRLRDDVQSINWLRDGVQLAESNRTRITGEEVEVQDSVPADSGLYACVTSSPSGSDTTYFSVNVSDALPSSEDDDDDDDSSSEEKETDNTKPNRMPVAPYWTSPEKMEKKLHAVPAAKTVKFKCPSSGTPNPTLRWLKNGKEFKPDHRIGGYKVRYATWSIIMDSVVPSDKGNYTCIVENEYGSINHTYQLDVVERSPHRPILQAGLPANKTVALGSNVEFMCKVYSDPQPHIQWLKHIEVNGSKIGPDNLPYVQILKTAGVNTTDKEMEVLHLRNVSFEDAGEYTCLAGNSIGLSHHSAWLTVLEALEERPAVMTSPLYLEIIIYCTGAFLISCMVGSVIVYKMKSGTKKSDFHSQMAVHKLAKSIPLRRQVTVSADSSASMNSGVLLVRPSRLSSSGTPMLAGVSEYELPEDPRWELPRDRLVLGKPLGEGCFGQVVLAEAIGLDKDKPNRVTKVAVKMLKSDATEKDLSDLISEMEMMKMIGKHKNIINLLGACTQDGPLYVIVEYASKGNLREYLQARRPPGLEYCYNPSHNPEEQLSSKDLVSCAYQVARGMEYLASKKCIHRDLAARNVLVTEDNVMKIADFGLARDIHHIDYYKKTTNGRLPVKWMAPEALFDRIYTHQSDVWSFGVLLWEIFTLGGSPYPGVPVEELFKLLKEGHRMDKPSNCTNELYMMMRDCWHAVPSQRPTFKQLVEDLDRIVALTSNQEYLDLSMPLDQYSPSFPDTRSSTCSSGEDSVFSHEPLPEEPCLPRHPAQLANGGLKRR

| SMILES | IC50 (FGFR1) [nM] | IC50 (FGFR2) [nM] | IC50 (FGFR3) [nM] |
| --- | --- | --- | --- |
| COc1cc(OC)c(F)c(N2Cc3cnc(NC4CCCC4)cc3C3(CC3)C2=O)c1F [Example 34, 6′-(cyclopentylamino)-2′-(2,6-difluoro-3,5-dimethoxyphenyl)-1′H-spiro[cyclopropane-1,4′-[2,7]naphthyridin]-3′(2′H)-one] | < 100 | < 100 | < 100 |
| COc1cc(OC)c(F)c(N2Cc3cnc(N)c(Oc4ccccc4)c3N(C)C2=O)c1F [Example 7, 7-amino-3-(2,6-difluoro-3,5-dimethoxyphenyl)-1-methyl-8-phenoxy-3,4-dihydropyrido[4,3-d]pyrimidin-2(1H)-one] | < 100 | < 100 | < 100 |
| COc1cc(OC)c(F)c(N2Cc3cnc(N)c(-c4ccc(F)cc4)c3N(C)C2=O)c1F [Example 15, 7-amino-3-(2,6-difluoro-3,5-dimethoxyphenyl)-8-(4-fluorophenyl)-1-methyl-3,4-dihydro-pyrido[4,3-d]pyrimidin-2(1H)-one] | < 100 | < 100 | < 100 |
| CCn1cc(-c2c(N)ncc3c2N(C)C(=O)N(c2c(F)c(OC)cc(OC)c2F)C3)cn1 [Example 9, 7-amino-3-(2,6-difluoro-3,5-dimethoxyphenyl)-1-methyl-8-(1-ethyl-1H-pyrazol-4-yl)-3,4-dihydropyrido[4,3-d]pyrimidin-2(1H)-one] | < 100 | < 100 | < 100 |

More lines, now with the values ahead:

| IC50 (FGFR1) [nM] | IC50 (FGFR2) [nM] | IC50 (FGFR3) [nM] | SMILES |
| --- | --- | --- | --- |
| < 100 | < 100 | < 100 | COc1cc(OC)c(F)c(N2Cc3cnc(NC4CCN(C)CC4)cc3C3(CC3)C2=O)c1F [Example 44, 2′-(2,6-difluoro-3,5-dimethoxyphenyl)-6′-(1-methylpiperidin-4-ylamino)-1′H-spiro[cyclopropane-1,4′-[2,7]naphthyridin]-3′(2′H)-one] |
| < 100 | < 100 | < 100 | COc1cc(OC)c(F)c(N2Cc3cnc(N)c(C)c3N(c3nnn(C)n3)C2=O)c1F [Example 46, 7-amino-3-(2,6-difluoro-3,5-dimethoxyphenyl)-8-methyl-1-(2-methyl-2H-tetrazol-5-yl)-3,4-dihydropyrido[4,3-d]pyrimidin-2(1H)-one] |
| < 100 | < 100 | < 100 | COc1cc(OC)c(F)c(N2Cc3cnc(N)c(C#N)c3N(Cc3cnn(C)c3)C2=O)c1F [Example 51, 7-amino-3-(2,6-difluoro-3,5-dimethoxyphenyl)-1-[(1-methyl-1H-pyrazol-4-yl)methyl]-2-oxo-1,2,3,4-tetrahydropyrido[4,3-d]pyrimidine-8-carbonitrile] |

— patent US10040790B2, “Bicyclic heterocycles as FGFR inhibitors” (Incyte Corporation, priority 2013, dated 2018)
